The values below come from PMC5540273, “Progress towards a public chemogenomic set for protein kinases and a call for contributions” (PLoS ONE, 2017).

Holding throughout (test): KINOMEscan competition binding
One assay addresses AKT1 (Homo sapiens, UniProt P31749). As to conditions: read-out: %Inh AKT1.
In the next assay the target is T1, CAMK4 (Homo sapiens, UniProt Q16566).
T1 sequence (Q16566 1-473): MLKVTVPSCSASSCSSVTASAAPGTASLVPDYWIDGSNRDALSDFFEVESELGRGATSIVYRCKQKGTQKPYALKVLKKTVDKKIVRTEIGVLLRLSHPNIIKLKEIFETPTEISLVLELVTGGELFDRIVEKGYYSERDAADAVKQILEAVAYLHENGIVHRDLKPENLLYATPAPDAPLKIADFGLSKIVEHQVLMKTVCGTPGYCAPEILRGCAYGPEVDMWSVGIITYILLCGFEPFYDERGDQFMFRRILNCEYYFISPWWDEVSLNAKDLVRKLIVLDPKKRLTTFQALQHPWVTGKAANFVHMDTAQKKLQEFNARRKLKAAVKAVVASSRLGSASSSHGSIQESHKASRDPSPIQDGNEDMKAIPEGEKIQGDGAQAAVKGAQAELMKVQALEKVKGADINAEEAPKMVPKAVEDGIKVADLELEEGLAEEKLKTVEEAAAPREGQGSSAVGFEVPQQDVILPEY
As to conditions: read-out: %Inh CAMK4.

A further assay deals with T2, HIPK4 (Homo sapiens, UniProt Q8NE63).
T2 sequence (Q8NE63 1-616): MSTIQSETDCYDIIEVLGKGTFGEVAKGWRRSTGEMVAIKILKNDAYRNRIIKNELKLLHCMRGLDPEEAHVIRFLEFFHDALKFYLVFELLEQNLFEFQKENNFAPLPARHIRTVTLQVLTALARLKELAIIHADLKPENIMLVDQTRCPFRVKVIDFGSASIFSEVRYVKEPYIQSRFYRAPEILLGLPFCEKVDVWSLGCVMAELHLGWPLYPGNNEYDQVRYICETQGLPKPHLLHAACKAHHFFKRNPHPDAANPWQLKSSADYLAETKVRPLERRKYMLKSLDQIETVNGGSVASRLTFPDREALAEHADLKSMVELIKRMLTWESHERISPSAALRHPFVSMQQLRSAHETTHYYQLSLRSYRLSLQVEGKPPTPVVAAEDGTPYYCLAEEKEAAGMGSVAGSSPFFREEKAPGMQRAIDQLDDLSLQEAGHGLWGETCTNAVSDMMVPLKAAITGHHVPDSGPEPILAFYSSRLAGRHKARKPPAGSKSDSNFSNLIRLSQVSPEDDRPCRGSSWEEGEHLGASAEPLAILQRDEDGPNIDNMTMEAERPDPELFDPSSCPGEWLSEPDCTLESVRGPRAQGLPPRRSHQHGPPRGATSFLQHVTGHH
The note with it: read-out: %Inh HIPK4.

Another assay addresses T3, EPHB4 (Homo sapiens, UniProt P54760).
T3 sequence (P54760 16-987): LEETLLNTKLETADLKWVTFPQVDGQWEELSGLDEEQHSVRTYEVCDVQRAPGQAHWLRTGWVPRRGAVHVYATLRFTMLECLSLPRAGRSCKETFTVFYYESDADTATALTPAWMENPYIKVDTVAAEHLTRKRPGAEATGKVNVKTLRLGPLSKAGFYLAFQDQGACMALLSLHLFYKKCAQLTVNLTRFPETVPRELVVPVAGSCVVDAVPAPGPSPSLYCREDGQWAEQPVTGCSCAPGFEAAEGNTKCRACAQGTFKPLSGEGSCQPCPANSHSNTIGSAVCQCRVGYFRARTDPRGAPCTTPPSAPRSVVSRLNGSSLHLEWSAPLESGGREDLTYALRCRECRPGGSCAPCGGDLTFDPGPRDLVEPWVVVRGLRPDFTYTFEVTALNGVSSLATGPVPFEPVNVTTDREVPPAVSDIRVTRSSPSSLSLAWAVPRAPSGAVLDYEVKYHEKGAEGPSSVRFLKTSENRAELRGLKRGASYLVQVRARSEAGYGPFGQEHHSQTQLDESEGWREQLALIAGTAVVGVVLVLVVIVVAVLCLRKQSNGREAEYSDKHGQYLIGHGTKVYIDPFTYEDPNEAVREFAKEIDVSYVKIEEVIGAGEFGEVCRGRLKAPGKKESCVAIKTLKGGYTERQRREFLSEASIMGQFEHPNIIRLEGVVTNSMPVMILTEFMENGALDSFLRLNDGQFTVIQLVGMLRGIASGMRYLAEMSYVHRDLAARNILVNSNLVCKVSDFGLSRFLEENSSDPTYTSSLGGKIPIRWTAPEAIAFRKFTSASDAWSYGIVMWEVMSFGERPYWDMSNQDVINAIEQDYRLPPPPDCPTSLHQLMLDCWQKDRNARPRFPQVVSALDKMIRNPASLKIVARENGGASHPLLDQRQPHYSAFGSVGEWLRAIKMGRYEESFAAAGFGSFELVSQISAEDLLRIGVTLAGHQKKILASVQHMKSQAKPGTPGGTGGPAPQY
As to conditions: read-out: %Inh EPHB4.

The target of the next assay is CSNK1G1 (Homo sapiens, UniProt Q9HCP0). The note with it: read-out: %Inh CSNK1G1.
Sequence of CSNK1G1 (Q9HCP0 whole entry): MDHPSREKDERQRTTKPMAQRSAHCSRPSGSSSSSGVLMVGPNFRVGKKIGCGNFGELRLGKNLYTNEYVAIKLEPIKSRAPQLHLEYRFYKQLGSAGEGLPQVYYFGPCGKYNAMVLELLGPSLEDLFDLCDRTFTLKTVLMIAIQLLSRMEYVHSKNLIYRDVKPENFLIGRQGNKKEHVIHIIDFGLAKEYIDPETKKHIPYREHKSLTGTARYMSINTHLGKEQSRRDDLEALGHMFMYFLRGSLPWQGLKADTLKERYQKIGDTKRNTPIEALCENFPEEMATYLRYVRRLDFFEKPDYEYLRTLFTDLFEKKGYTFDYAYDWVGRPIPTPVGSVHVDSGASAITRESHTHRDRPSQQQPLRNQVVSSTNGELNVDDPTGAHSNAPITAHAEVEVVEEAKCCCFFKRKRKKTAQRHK
A further assay deals with CSK (Homo sapiens, UniProt P41240). As to conditions: read-out: %Inh CSK.
Sequence of CSK (P41240 whole entry): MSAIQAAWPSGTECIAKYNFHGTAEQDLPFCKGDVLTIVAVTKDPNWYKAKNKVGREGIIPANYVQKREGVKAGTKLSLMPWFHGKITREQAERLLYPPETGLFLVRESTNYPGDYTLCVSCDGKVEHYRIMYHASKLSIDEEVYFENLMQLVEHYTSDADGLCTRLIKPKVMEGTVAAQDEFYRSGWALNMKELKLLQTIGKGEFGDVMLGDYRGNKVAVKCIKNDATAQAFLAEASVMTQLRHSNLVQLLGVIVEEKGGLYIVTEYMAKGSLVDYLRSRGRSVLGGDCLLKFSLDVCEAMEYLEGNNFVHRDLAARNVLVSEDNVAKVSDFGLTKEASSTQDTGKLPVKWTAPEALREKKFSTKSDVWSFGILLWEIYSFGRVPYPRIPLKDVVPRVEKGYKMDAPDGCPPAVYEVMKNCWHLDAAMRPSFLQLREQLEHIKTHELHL

Molecules are shown by their SMILES.

Sequence of AKT1 (P31749 whole entry): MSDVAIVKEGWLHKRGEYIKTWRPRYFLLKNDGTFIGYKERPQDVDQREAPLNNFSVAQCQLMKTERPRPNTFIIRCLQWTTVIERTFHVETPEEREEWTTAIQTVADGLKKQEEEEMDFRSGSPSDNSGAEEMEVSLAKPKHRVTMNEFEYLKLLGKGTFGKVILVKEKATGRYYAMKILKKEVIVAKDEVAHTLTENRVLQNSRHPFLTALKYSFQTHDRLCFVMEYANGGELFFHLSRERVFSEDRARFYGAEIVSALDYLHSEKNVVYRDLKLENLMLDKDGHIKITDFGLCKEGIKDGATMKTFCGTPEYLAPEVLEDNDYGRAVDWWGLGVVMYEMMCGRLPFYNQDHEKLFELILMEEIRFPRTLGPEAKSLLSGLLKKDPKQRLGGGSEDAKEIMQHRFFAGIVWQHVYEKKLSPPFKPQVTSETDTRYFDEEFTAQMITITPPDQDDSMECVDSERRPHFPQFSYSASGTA

As to `Cn1cc(-c2cnc(N)c3c(-c4ccc5c(c4)CCN5C(=O)Cc4ccccc4)csc23)cn1` [UNC10225012A], the inhibition at 1 µM on AKT1 was found to be 14%; at CAMK4, 0%; at HIPK4 it was 0%; on EPHB4 it was 9%; on CSNK1G1, 21%; at CSK, 20%.
Regarding `CS(=O)(=O)Cc1ccc(Nc2nccc(-c3c(-c4cccc(NC(=O)C5CCCCC5)c4)nn4ncccc34)n2)cc1` [UNC10225159A], the inhibition at 1 µM on AKT1 was found to be 23%; at CAMK4 it was 0%; on HIPK4, 0%; at EPHB4, 0%; on CSNK1G1, 2%; at CSK, 10%.
As for `Cc1ccc(NC(=O)Nc2cccc(C(F)(F)F)c2)cc1` [UNC10225187A], the inhibition at 1 µM came to 12% on AKT1; 5% on CAMK4; 0% at HIPK4; 0% on EPHB4; 0% on CSNK1G1; 28% at CSK.
For the compound `COc1cccc(OC)c1C(=O)Nc1cccc(-c2nn3ccccc3c2-c2ccnc(Nc3cccc(F)c3)n2)c1` [UNC10225310A], the inhibition at 1 µM was determined as 4% on AKT1; 0% at CAMK4; 84% at HIPK4; 8% at EPHB4; 14% on CSNK1G1; 18% on CSK.
Regarding `O=c1cc(N2CCOCC2)nc2n(Cc3cccc(Cl)c3Cl)c(C3CC3)nn12` [UNC10225469A], the inhibition at 1 µM at AKT1 was 12%; on CAMK4, 5%; at HIPK4 it was 0%; on EPHB4, 3%; on CSNK1G1, 0%; on CSK, 8%.
